The values below come from publication PMC12811252 (The EMBO Journal, 2025).

Experiment [1] concerns the target OT-I TCR. Briefly: SPR steady-state binding of soluble OT-I TCR to immobilised pMHC (H-2Kb) at 37 °C: apparent and active KD. Also noted: species or system mouse.
Experiment [2] has as its target OT-I TCR. The following applies: 25 °C; ref Alam 95; read-out: Original KD, Alam 95 25ºC; cited from earlier work. The text has this: Supplement 44318_2025_644_MOESM5_ESM.zip/KDs - Original vs Revised column.xlsx, sheet "KDs - Original vs Revised colum" | column: Original KD from indicated studies in columns
Experiment [3] addresses OT-I TCR. Particulars: ref Alam 99, cited from earlier work.
In experiment [4] the test system is naive CD8+ T cells from OT-I transgenic mice. Particulars: 2D affinity AcKa; ref Huang 2010; cited from earlier work. The text has this:
This striking observation spur ...

Experiment [5] concerns OT-I T cells from transgenic mice. Set-up: method as in Hogquist 1995. Particulars: relative to OVA (N4) = 1; ref Hogquist 1995; cited from earlier work.
The subject of experiment [6] is pre-selection OT-I double-positive thymocytes. Also noted: method as in Daniels 2006. Particulars: relative to OVA (N4) = 1; ref Daniels 2006; cited from earlier work.
For experiment [7], the system named is naive OT-I splenocytes. The following applies: relative to OVA (N4) = 1; ref Huang 2010; cited from earlier work.
The target in experiment [8] is OT-I TCR. The following applies: file OT1 Discrimination Published Original KD; repeated per study block; ref Alam 99, Rosette; cited from earlier work. The text has this:
Supplement 44318_2025_644_MOESM7_ESM.zip/OT1 Discrimination Published Original KD.csv, table

For experiment [9], the target named is VSV pMHC: […] on H-2K^b with human beta-2 microglobulin (mouse | human | not stated). Briefly: SPR. (In general: In SPR one partner is held on a chip, and binding of the other changes the refractive index at the surface.)
In experiment [10] the target is OT-I TCR. Kind of experiment: SPR binding of OT-I TCR to inactive (denatured or unfolded) pMHC, Bmax constrained to pMHC immobilisation level. The following applies: unit not printed in the file (text: µM), read-out: KD for inactive pMHC, single experiment. Set-up: species or system mouse.
Target sequence in this assay (as listed by the source): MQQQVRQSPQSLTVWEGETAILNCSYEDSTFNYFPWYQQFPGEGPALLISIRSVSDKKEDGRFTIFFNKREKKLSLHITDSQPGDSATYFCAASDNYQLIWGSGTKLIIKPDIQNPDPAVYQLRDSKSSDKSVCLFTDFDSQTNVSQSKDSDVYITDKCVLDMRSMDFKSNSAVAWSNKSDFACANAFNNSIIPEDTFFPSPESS
Target sequence in this assay (as listed by the source): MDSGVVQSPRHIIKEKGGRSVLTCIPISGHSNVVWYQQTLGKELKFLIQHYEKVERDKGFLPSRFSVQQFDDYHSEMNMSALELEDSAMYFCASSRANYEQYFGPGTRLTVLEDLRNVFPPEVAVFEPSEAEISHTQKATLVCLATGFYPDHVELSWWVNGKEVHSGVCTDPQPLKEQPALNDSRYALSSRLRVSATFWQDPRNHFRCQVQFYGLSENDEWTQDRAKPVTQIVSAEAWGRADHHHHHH
Experiment [11] has as its target OT-I TCR. Set-up: method as in Stepanek et al, 2014. The following applies: SPR equilibrium binding analysis, 25 °C, mean of two independent replicates; ref Stepanek et al, 2014; cited from earlier work.
The subject of experiment [12] is CD8+ Jurkat cells expressing the OT-I TCR. Also noted: method as in Lo 2019. The following applies: relative to OVA (N4) = 1; ref Lo 2019; cited from earlier work.
In experiment [13] the test system is naive or anergic mouse OT-I CD8+ T cells. Also noted: method as in 2 sources, ref Lo et al, 2023 ||| ref Lo 2023. The following applies: relative to OVA (N4) = 1; values with * excluded; ref Lo 2023; cited from earlier work.
Experiment [14] has as its system OT-I T cells. Also noted: method as in Zehn 2009. The following applies: relative to OVA (N4) = 1; ref Zehn 2009; cited from earlier work.
The mark [15] stands for this setting: replicate 1 (1st value of the list in KD_active_calculated.csv), 37 °C, unit not given in the file (Table 1: µM), read-out: KD active, single SPR experiment.
Where [16] appears, read: replicate 2 (2nd value of the list), 37 °C, unit inferred, read-out: KD active, single SPR experiment.
Where [17] appears, read: replicate 3 (3rd value of the list), 37 °C, unit inferred, read-out: KD active, single SPR experiment.
Setting [18] is: replicate 4 (4th value of the list), 37 °C, unit inferred, read-out: KD active, single SPR experiment.
[19] abbreviates: replicate 5 (5th value of the list), 37 °C, unit inferred, read-out: KD active, single SPR experiment.
The mark [20] stands for this setting: replicate 6 (6th value of the list), 37 °C, unit inferred, read-out: KD active, single SPR experiment.
[21] abbreviates: 25 °C, read-out: Original KD, Alam 99 (25ºC).
Where [22] appears, read: 37 °C, * excluded values, because kinetics showed biphasic behaviour, read-out: Original KD, Alam 99 (37ºC).
[23] abbreviates: SPR, single repeats, read-out: KDs active.

Read-outs that look alike come from different tables or passages of the source.

On to ATLVFHNL [Stat3], for which the Kd in experiment [1] (setting [15]) is 2270 µM; in [1] (setting [16]), 4730 µM; in [1] (setting [17]), 3740 µM.

Regarding EIINFEKL [Peptide E1], the Kd in experiment [1] (setting [16]) worked out at 2800 µM; in experiment [1] (setting [17]), 12400 µM; in [1] (setting [18]) it was 3870 µM; in experiment [1] (setting [19]), 3520 µM; in [1] (setting [20]), 2180 µM; in experiment [1] (replicate 7 (7th value of the list), 37 °C, unit inferred, read-out: KD active, single SPR experiment), 2320 µM. The Kd in experiment [1] (replicate 8 (8th value of the list), 37 °C, unit inferred, read-out: KD active, single SPR experiment) was 3030 µM; in experiment [1] (replicate 9 (9th value of the list), 37 °C, unit inferred, read-out: KD active, single SPR experiment) it was 7240 µM; in experiment [1] (replicate 10 (10th value of the list), 37 °C, unit inferred, read-out: KD active, single SPR experiment) it was 2140 µM; in experiment [2] it was 0.0226 mM; in experiment [3] (setting [21]), 0.0203 mM; in experiment [8] it was 0.0203 mM. In addition, the “2D Huang 37¼C (AcKa)” value in experiment [4] is on record as 0.0000054. Also, the “Potency, Hogquist 1995” value in experiment [5] is reported as 5010000. In [6], the “Potency, Daniels 2006” value is recorded as 56524. Further, the “Potency, Huang 2010” value in experiment [7] is given as 167000.

Consider ISFKFDHL [Cappa1], for which the Kd in [1] (setting [15]) is 2470 µM; in experiment [1] (setting [16]), 6920 µM; in [1] (setting [17]) it was 9740 µM; in experiment [1] (setting [18]), 3280 µM; in experiment [1] (setting [19]) it was 2800 µM; in experiment [1] (setting [20]), 2530 µM.

Regarding “OT-I TCR (soluble; murine variable domains, human constant domains, artificial interchain disulphide)”, in [9], the Kd came out at 1.58 mM.

On to “RGYNYEKL [V-OVA, its pMHC is not correctly folded]”, for which the Kd is 1560 µM in experiment [10] (replicate 1 (first line of Denatured KD.csv)); 2630 µM in experiment [10] (replicate 2 (second line of Denatured KD.csv)); 0.0298 mM in experiment [2]; 0.0182 mM in [3] (setting [21]); 0.0127 mM in [3] (setting [22]); 0.019 mM in experiment [8]. Further, the “2D Huang 37¼C (AcKa)” value in experiment [4] was 0.0000029. Moreover, in [7], the “Potency, Huang 2010” value is 417000.

As to RTYTYEKL [Catnb], the Kd in experiment [1] (setting [23]) was 2040 µM; in experiment [1] (setting [15]), 2040 µM; in experiment [1] (setting [16]), 1880 µM; in experiment [1] (setting [17]) it was 1900 µM; in [1] (setting [18]) it was 2040 µM; in experiment [1] (setting [19]) it was 1950 µM. In [1] (setting [20]), the Kd came out at 2380 µM.

For the substance SIAAFASL [Null], the Kd in experiment [1] (setting [15]) was 4610 µM; in [1] (setting [16]) it was 3520 µM; in experiment [1] (setting [17]), 2350 µM.

Take SIIEFEKL [Peptide E4]: the Kd in [1] (setting [15]) is 3370 µM; in experiment [1] (setting [16]) it was 4000 µM; in [1] (setting [17]), 2730 µM; in experiment [11], > 1 mM.

For SIIKFEKL [Peptide K4], the Kd in experiment [1] (setting [15]) was 2710 µM; in experiment [1] (setting [16]) it was 3290 µM; in experiment [1] (setting [17]), 2190 µM.

For SIIQFERL [Peptide Q4R7], the Kd in experiment [1] (setting [15]) is 184 µM; in [1] (setting [16]), 273 µM; in experiment [1] (setting [17]) it was 317 µM; in experiment [11], 0.288 mM. Moreover, the “Potency, Daniels 2006” value in [6] is reported as 81. The “Potency, Lo 2019” value in [12] is reported as 3.464. Besides, the “Potency, Lo 2023” value in [13] was 14.78.

Consider SIIRFEKL [Peptide R4], for which the Kd in [1] (setting [23]) was 4270 µM; in experiment [1] (repeat 3, read-out: Revised KDs (This Study)) it was 4270 µM; in experiment [1] (repeat 6, read-out: Revised KDs (This Study)) it was 4270 µM; in experiment [1] (setting [15]), 7640 µM; in experiment [1] (setting [16]), 3760 µM; in [1] (setting [17]), 4270 µM. Besides, the Kd in experiment [1] (setting [18]) is 5030 µM; in experiment [1] (setting [19]), 6430 µM; in [1] (setting [20]), 4280 µM; in [2], 0.0571 mM; in experiment [3] (setting [21]) it was 0.0401 mM; in experiment [3] (setting [22]) it was 0.0269 mM. Further, the Kd in [8] is 0.0401 mM. Besides, in [4], the “2D Huang 37¼C (AcKa)” value is recorded as 0.0000017. In addition, in [7], the “Potency, Huang 2010” value was 167000.

For the substance SIIVFEKL [Peptide V4], the Kd in experiment [1] (setting [15]) is 907 µM; in experiment [1] (setting [16]), 791 µM; in experiment [1] (setting [17]), 628 µM; in experiment [1] (setting [18]) it was 879 µM; in [11] it was > 1 mM. The “Potency, Zehn 2009” value in [14] is recorded as 680. Moreover, the “Potency, Lo 2023” value in experiment [13] was 2016.

Regarding VGPRYTNL [Mapk1], the Kd in [1] (setting [16]) was 4240 µM; in experiment [1] (setting [17]) it was 1810 µM; in [1] (setting [18]), 2010 µM.
